Type in all cases: cell-based
Assay [1] has as its target T1, human GIP receptor (Homo sapiens, UniProt P48546).
T1 sequence (P48546 22-466): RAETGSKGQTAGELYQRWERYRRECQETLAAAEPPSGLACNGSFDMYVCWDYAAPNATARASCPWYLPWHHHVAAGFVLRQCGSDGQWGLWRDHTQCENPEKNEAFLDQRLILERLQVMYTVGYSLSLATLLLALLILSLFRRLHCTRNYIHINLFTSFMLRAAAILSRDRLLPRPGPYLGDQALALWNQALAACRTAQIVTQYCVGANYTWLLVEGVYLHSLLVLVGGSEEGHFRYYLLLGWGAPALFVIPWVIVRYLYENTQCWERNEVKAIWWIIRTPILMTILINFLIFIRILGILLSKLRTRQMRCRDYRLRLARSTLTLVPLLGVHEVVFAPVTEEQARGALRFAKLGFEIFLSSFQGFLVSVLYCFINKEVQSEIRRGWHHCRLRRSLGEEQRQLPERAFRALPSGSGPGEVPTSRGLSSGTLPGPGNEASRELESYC
Put plainly: cAMP agonism (CisBio cAMP Dynamic 2 HTRF assay). To be noted: HEK293, read-out: cAMP agonism, % Efficacy, Table 1C, HEK-293 cells. The protocol:
To test for agonistic properties at the GIP receptor, compounds were diluted and added to cells as described above and incubated for 30 min at 37° C. The resulting increase in intracellular cAMP was determined using the CisBio cAMP Dynamic 2 HTRF Assay Kit as described above.
A general note: TR-FRET usually uses a lanthanide donor and a delayed reading to cut background.

In assay [2] the target is T1, human GIP receptor. Put plainly: cAMP antagonism (CisBio cAMP Dynamic 2 HTRF assay). Details: pCMV-Script vector. To be noted: Table 1C, CisBio, HEK-293 cells; for IC50: cAMP antagonism, nM (IC50), agonist GIP1-42 at EC50. The method in brief:
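Four-parameter fits of cAMP dose-response gave pIC50. cAMP fall was quantified by HTRF competition, ratio 665/620 nm after 60 min at room temperature, against a cAMP standard curve.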

Assay [3] addresses T1, human GIP receptor. Description: cAMP accumulation, agonism (DiscoveRx HitHunter cAMP XS assay). Details: host or cells: COS-7 (transient, calcium phosphate; pCMV-Script vector). To be noted: for Emax: COS-7, read-out: cAMP agonism, Emax. The method in brief:
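cAMP accumulation measured by HitHunter cAMP XS in COS-7 cells transiently expressing human GIP receptor, after 30 min in HBS with 1 mM IBMX at 37 °C. Antagonists preincubated 10 min before GIP giving 50-80% of maximum, then 20 min more; agonist mode used 30 min ligand exposure.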
On the technique in general: Changes in cAMP serve as a functional read-out for many G protein-coupled receptors.

Assay [4] has as its target T1, human GIP receptor. Description: cAMP accumulation, antagonism (DiscoveRx HitHunter cAMP XS assay). Details: host or cells: COS-7 (transient, calcium phosphate; pCMV-Script vector). To be noted: for IC50: cAMP antagonism, nM (IC50), transiently transfected COS-7 cells. The protocol:
Transient transfected COS-7 cells expressing the human GIP receptor were seeded in white 96-well plates with a density of 3.5*10^4/well. The day after, the cells were washed twice with Hepes buffered saline (HBS) buffer and incubated with HBS and 1 mM 3-isobutyl-1-methylxanthine (IBMX) for 30 min at 37° C. To test for agonistic properties, ligands were added and incubated for 30 min at 37° C. In order to test for antagonistic properties, the cells were preincubated with the antagonists for 10 min prior to the addition of the agonist and subsequent incubated for 20 additional min. The HitHunter™ cAMP XS assay (DiscoveRx) was carried out according to the manufacturer's instructions.
In order to develop a GIP receptor antagonist with improved antagonistic properties, individual amino acid substitutions were conducted on GIP(3-30)NH2 and in particular at positions: 16, 18, 30 or 3, 16, 18, 30. The obtained peptides were lipidated at position 18 directly or via a linker. Both the agonistic and antagonistic profiles of the compounds were tested in cAMP accumulation experiments done in transiently transfected COS-7 cells expressing the human GIP receptor. To investigate if these mutated analogues still retained their antagonistic properties, their ability to inhibit a GIP-mediated cAMP response corresponding to 50-80% of maximum activation was examined.

pIC50: −log10 of the molar value. *1 amine or outer side, *2 acyl side, *3 side chain or, on linkers, in order; H or OH if unused. Where a SMILES comes first, the peptide text is derived from it. Side-chain parts run from the residue outwards. The star is where a group is joined. C16 diacid = O=C(O)CCCCCCCCCCCCCCC(=O)*; γGlu = O=C(O)[C@H](CCC(=O)[*:2])N[*:1]; AEEA = NCCOCCOCC(=O)O

The IC50 is the concentration needed to halve the response being measured. For orientation: pIC50 means the IC50 on a negative log10 scale, so that one unit is a factor of ten.

Turning to `CC[C@H](C)[C@H](NC(=O)[C@H](CO)NC(=O)[C@H](Cc1ccc(O)cc1)NC(=O)[C@H](CC(=O)O)NC(=O)[C@H](CO)NC(=O)[C@@H](NC(=O)[C@H](Cc1ccccc1)NC(=O)[C@@H](NC(=O)CNC(=O)[C@@H](N)CO)[C@@H](C)O)[C@@H](C)CC)C(=O)N[C@@H](C)C(=O)N[C@@H](CCSC)C(=O)N[C@@H](CC(=O)O)C(=O)N[C@@H](CCCNC(=N)N)C(=O)N[C@H](C(=O)N[C@@H](CCCCNC(=O)CCCCCCCCCCCCCCC(=O)O)C(=O)N[C@@H](CCC(N)=O)C(=O)N[C@@H](CCC(N)=O)C(=O)N[C@@H](CC(=O)O)C(=O)N[C@@H](Cc1ccccc1)C(=O)N[C@H](C(=O)N[C@@H](CC(N)=O)C(=O)N[C@@H](Cc1c[nH]c2ccccc12)C(=O)N[C@@H](CC(C)C)C(=O)N[C@@H](CC(C)C)C(=O)N[C@@H](C)C(=O)N[C@@H](CCC(N)=O)C(=O)N[C@@H](CCCNC(=N)N)C(=O)O)C(C)C)[C@@H](C)CC` [AT259] (H-SGTFISDYSIAMDRIK(C16 diacid)QQDFVNWLLAQR-OH; N-terminus assumed), the Emax at human GIP receptor [1] amounted to 9%; at human GIP receptor [3] it was 20%. Moreover, the “cAMP antagonism, % inhib” value on human GIP receptor [2] was 72%. For the same compound, the IC50 at human GIP receptor [2] was determined as 58.4 nM; at human GIP receptor [4] (Table 1B, DiscoveRx), 19 nM.
On to `CC[C@H](C)[C@H](NC(=O)[C@H](CO)NC(=O)[C@H](Cc1ccc(O)cc1)NC(=O)[C@H](CC(=O)O)NC(=O)[C@H](CO)NC(=O)[C@@H](NC(=O)[C@H](Cc1ccccc1)NC(=O)[C@@H](NC(=O)CNC(=O)CN)[C@@H](C)O)[C@@H](C)CC)C(=O)N[C@@H](C)C(=O)N[C@@H](CCSC)C(=O)N[C@@H](CC(=O)O)C(=O)N[C@@H](CCCNC(=N)N)C(=O)N[C@H](C(=O)N[C@@H](CCCCNC(=O)COCCOCCNC(=O)CC[C@H](NC(=O)CCCCCCCCCCCCCCC(=O)O)C(=O)O)C(=O)N[C@@H](CCC(N)=O)C(=O)N[C@@H](CCC(N)=O)C(=O)N[C@@H](CC(=O)O)C(=O)N[C@@H](Cc1ccccc1)C(=O)N[C@H](C(=O)N[C@@H](CC(N)=O)C(=O)N[C@@H](Cc1c[nH]c2ccccc12)C(=O)N[C@@H](CC(C)C)C(=O)N[C@@H](CC(C)C)C(=O)N[C@@H](C)C(=O)N[C@@H](CCC(N)=O)C(=O)N[C@@H](CCCNC(=N)N)C(=O)O)C(C)C)[C@@H](C)CC` [AT269] (HELM PEPTIDE1{G.G.T.F.I.S.D.Y.S.I.A.M.D.R.I.K.Q.Q.D.F.V.N.W.L.L.A.Q.R}|PEPTIDE2{[O=C(O)CCCCCCCCCCCCCCC(=O)[*:2]].[gGlu].[O=C(COCCOCCN[*:1])[*:2]]}$PEPTIDE1,PEPTIDE2,16:R3-3:R2$$$V2.0; N-terminus assumed), for which the Emax at human GIP receptor [1] stood at 0%; at human GIP receptor [3], 12%. Moreover, the concentration for half-maximal inhibition (IC50) at human GIP receptor [4] (Table 1B, DiscoveRx) stood at 91 nM.
With `CC[C@H](C)[C@H](NC(=O)[C@H](CO)NC(=O)[C@H](Cc1ccc(O)cc1)NC(=O)[C@H](CC(=O)O)NC(=O)[C@H](CO)NC(=O)[C@@H](NC(=O)[C@H](Cc1ccccc1)NC(=O)[C@@H](NC(=O)CNC(=O)CN)[C@@H](C)O)[C@@H](C)CC)C(=O)N[C@@H](C)C(=O)N[C@@H](CCSC)C(=O)N[C@@H](CC(=O)O)C(=O)N[C@@H](CCCNC(=N)N)C(=O)N[C@H](C(=O)N[C@@H](CCCCNC(=O)COCCOCCNC(=O)COCCOCCNC(=O)CC[C@H](NC(=O)CCCCCCCCCCCCCCC(=O)O)C(=O)O)C(=O)N[C@@H](CCC(N)=O)C(=O)N[C@@H](CCC(N)=O)C(=O)N[C@@H](CC(=O)O)C(=O)N[C@@H](Cc1ccccc1)C(=O)N[C@H](C(=O)N[C@@H](CC(N)=O)C(=O)N[C@@H](Cc1c[nH]c2ccccc12)C(=O)N[C@@H](CC(C)C)C(=O)N[C@@H](CC(C)C)C(=O)N[C@@H](C)C(=O)N[C@@H](CCC(N)=O)C(=O)N[C@@H](CCCNC(=N)N)C(=O)O)C(C)C)[C@@H](C)CC` [AT275] (H-GGTFISDYSIAMDRIK([AEEA-AEEA-γGlu-C16 diacid])QQDFVNWLLAQR-OH; N-terminus assumed), the Emax on human GIP receptor [1] and on human GIP receptor [3] was 5% throughout. Also, on human GIP receptor [2], the “cAMP antagonism, % inhib” value is recorded as 66%. Moreover, the half-maximal inhibitory concentration (IC50) at human GIP receptor [2] worked out at 126 nM; on human GIP receptor [4] (Table 1B, DiscoveRx), 43 nM.
For `CC[C@H](C)[C@H](NC(=O)[C@H](CO)NC(=O)[C@H](Cc1ccc(O)cc1)NC(=O)[C@H](CC(=O)O)NC(=O)[C@H](CO)NC(=O)[C@@H](NC(=O)[C@H](Cc1ccccc1)NC(=O)[C@@H](NC(=O)CNC(=O)[C@@H]1CCCN1)[C@@H](C)O)[C@@H](C)CC)C(=O)N[C@@H](C)C(=O)N[C@@H](CCSC)C(=O)N[C@@H](CC(=O)O)C(=O)N[C@@H](CCCNC(=N)N)C(=O)N[C@H](C(=O)N[C@@H](CCCCNC(=O)COCCOCCNC(=O)COCCOCCNC(=O)CC[C@H](NC(=O)CCCCCCCCCCCCCCC(=O)O)C(=O)O)C(=O)N[C@@H](CCC(N)=O)C(=O)N[C@@H](CCC(N)=O)C(=O)N[C@@H](CC(=O)O)C(=O)N[C@@H](Cc1ccccc1)C(=O)N[C@H](C(=O)N[C@@H](CC(N)=O)C(=O)N[C@@H](Cc1c[nH]c2ccccc12)C(=O)N[C@@H](CC(C)C)C(=O)N[C@@H](CC(C)C)C(=O)N[C@@H](C)C(=O)N[C@@H](CCC(N)=O)C(=O)N[C@@H](CCCNC(=N)N)C(=O)O)C(C)C)[C@@H](C)CC` [AT279] (H-PGTFISDYSIAMDRIK([AEEA-AEEA-γGlu-C16 diacid])QQDFVNWLLAQR-OH; N-terminus assumed), the Emax turned out to be 14% on human GIP receptor [1] and 17% on human GIP receptor [3]. Moreover, the “cAMP antagonism, % inhib” value at human GIP receptor [2] came out at 81%. The half-inhibitory concentration (IC50) at human GIP receptor [4] (Table 1B, DiscoveRx) came to 19 nM.
With `CC[C@H](C)[C@H](NC(=O)[C@H](CO)NC(=O)[C@H](Cc1ccc(O)cc1)NC(=O)[C@H](CC(=O)O)NC(=O)[C@H](CO)NC(=O)[C@@H](NC(=O)[C@H](Cc1ccccc1)NC(=O)[C@@H](NC(=O)CNC(=O)[C@@H](N)CCC(=O)O)[C@@H](C)O)[C@@H](C)CC)C(=O)N[C@@H](C)C(=O)N[C@@H](CCSC)C(=O)N[C@@H](CC(=O)O)C(=O)N[C@@H](CCCNC(=N)N)C(=O)N[C@H](C(=O)N[C@@H](CCCCNC(=O)COCCOCCNC(=O)CC[C@H](NC(=O)CCCCCCCCCCCCCCC(=O)O)C(=O)O)C(=O)N[C@@H](CCC(N)=O)C(=O)N[C@@H](CCC(N)=O)C(=O)N[C@@H](CC(=O)O)C(=O)N[C@@H](Cc1ccccc1)C(=O)N[C@H](C(=O)N[C@@H](CC(N)=O)C(=O)N[C@@H](Cc1c[nH]c2ccccc12)C(=O)N[C@@H](CC(C)C)C(=O)N[C@@H](CC(C)C)C(=O)N[C@@H](C)C(=O)N[C@@H](CCC(N)=O)C(=O)N[C@@H](CCCNC(=N)N)C(N)=O)C(C)C)[C@@H](C)CC` [AT373] (HELM PEPTIDE1{E.G.T.F.I.S.D.Y.S.I.A.M.D.R.I.K.Q.Q.D.F.V.N.W.L.L.A.Q.R.[am]}|PEPTIDE2{[O=C(O)CCCCCCCCCCCCCCC(=O)[*:2]].[gGlu].[O=C(COCCOCCN[*:1])[*:2]]}$PEPTIDE1,PEPTIDE2,16:R3-3:R2$$$V2.0; N-terminus assumed), the Emax on human GIP receptor [1] was determined as 0%. On human GIP receptor [2], the “cAMP antagonism, % inhib” value is 91% and the half-maximal inhibitory concentration (IC50) is 12.6 nM. The “cAMP agonism, Emax” value on human GIP receptor [3] (Table 1B, DiscoveRx, COS-7 cells) is given as “No Agonism”. In addition, the negative logarithm of the IC50 (pIC50) on human GIP receptor [4] (IC50-value (GIPR antagonism), Examples 1 and 2, values of Tables 1B and 2) is 8.00. For the same compound, the “cAMP antagonism, % inhib” value on human GIP receptor [4] (Table 1B, DiscoveRx, COS-7 cells, % inhibition of Emax) stood at 94%.

These data come from patent publication US12187773B2, “Modified GIP peptide analogues” (Antag Therapeutics ApS, priority 2018, dated 2025).
